From patent US20200038513A1, “MODULATORS OF FAK PROTEOLYSIS AND ASSOCIATED METHODS OF USE” (ARVINAS OPERATIONS, INC., priority 2018, published 2020)
Read-outs that look alike come from different tables or passages of the source.

Columns and labels:
PPB = format: in vitro ADME; conditions: plasma
[1] = Pharmacokinetics of intraperitoneal or intravenous injection in CD1 mice; format: in vivo; conditions: for Conc. (ng/mL) Mouse 1 / Conc. (ng/mL) Mouse 2 / Conc. (ng/mL) Mouse 3 / concentration at 0.25 h / concentration at 0.5 h / concentration at 1 h / concentration at 2 h / concentration at 4 h / concentration at 8 h / concentration at 0.033 h / concentration at 0.083 h: CD1 mice plasma; for concentration at 0.25 h / concentration at 0.5 h / concentration at 1 h / concentration at 2 h / concentration at 4 h / concentration at 8 h / AUC(0-t) / half-life / concentration at 0.033 h / concentration at 0.083 h: male, CD1, mouse, plasma
Method in brief: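 Male CD1 mice, 6-8 weeks old, 3 per group, dosed IV (5 s injection; 10% HP-b-CD, 40 mM sodium acetate, 40 mM NaCl, pH 4.5) or IP (5% EtOH, 5% Solutol HS15 in D5W). Serial dorsal metatarsal vein blood, terminal heart puncture; plasma analysed by LC/MS/MS after acetonitrile precipitation, calibration 1-2000 ng/mL.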

[2] = ip, 10 mg/kg, IP 10 mg/kg, read-out: Conc. (ng/mL) Mouse 1
[3] = ip, 10 mg/kg, IP 10 mg/kg, read-out: Conc. (ng/mL) Mouse 2
[4] = ip, 10 mg/kg, IP 10 mg/kg, read-out: Conc. (ng/mL) Mouse 3
[5] = ip, 10 mg/kg, IP 10 mg/kg, read-out: Mean
[6] = iv, 1 mg/kg, IV 1.0 mg/kg, read-out: Conc. (ng/mL) Mouse 1
[7] = iv, 1 mg/kg, IV 1.0 mg/kg, read-out: Conc. (ng/mL) Mouse 2
[8] = iv, 1 mg/kg, IV 1.0 mg/kg, read-out: Conc. (ng/mL) Mouse 3
[9] = iv, 1 mg/kg, IV 1.0 mg/kg, read-out: Mean

Cc1ncsc1-c1ccc(CNC(=O)[C@@H]2C[C@@H](O)CN2C(=O)[C@@H](NC(=O)COCCCOc2ccc(Nc3ncc(C(F)(F)F)c(NCc4cccc(N(C)S(C)(=O)=O)c4)n3)cc2)C(C)(C)C)cc1 [Compound 101, (2S,4R)-1-((S)-3,3-dimethyl-2-(2-(3-(4-((4-((3-(N-methylmethylsulfonamido)benzyl)amino)-5-(trifluoromethyl)pyrimidin-2-yl)amino)phenoxy)propoxy)acetamido)butanoyl)-4-hydroxy-N-(4-(4-methylthiazol-5-yl)benzyl)pyrrolidine-2-carboxamide]
fraction unbound (PPB): 0.0065 | Conc. (ng/mL) Mouse 1 ([1]; IP 10 mg/kg, 24 h): BLOQ | Conc. (ng/mL) Mouse 2 ([1]; IP 10 mg/kg, 24 h): BLOQ | Conc. (ng/mL) Mouse 3 ([1]; IP 10 mg/kg, 24 h): BLOQ | Conc. (ng/mL) Mouse 1 ([1]; IV 1.0 mg/kg, 4 h): BLOQ | Conc. (ng/mL) Mouse 3 ([1]; IV 1.0 mg/kg, 4 h): BLOQ | Conc. (ng/mL) Mouse 1 ([1]; IV 1.0 mg/kg, 8 h): BLOQ | Conc. (ng/mL) Mouse 2 ([1]; IV 1.0 mg/kg, 8 h): BLOQ | Conc. (ng/mL) Mouse 3 ([1]; IV 1.0 mg/kg, 8 h): BLOQ | Conc. (ng/mL) Mouse 1 ([1]; IV 1.0 mg/kg, 24 h): BLOQ | Conc. (ng/mL) Mouse 2 ([1]; IV 1.0 mg/kg, 24 h): BLOQ | Conc. (ng/mL) Mouse 3 ([1]; IV 1.0 mg/kg, 24 h): BLOQ | concentration at 0.25 h [1, 2]: 800 ng/mL | concentration at 0.25 h [1, 3]: 407 ng/mL | concentration at 0.25 h [1, 4]: 271 ng/mL | concentration at 0.25 h [1, 5]: 493 ng/mL | concentration at 0.5 h [1, 2]: 860 ng/mL | concentration at 0.5 h [1, 3]: 523 ng/mL | concentration at 0.5 h [1, 4]: 335 ng/mL | concentration at 0.5 h [1, 5]: 573 ng/mL | concentration at 1 h [1, 2]: 1040 ng/mL | concentration at 1 h [1, 3]: 1520 ng/mL | concentration at 1 h [1, 4]: 1780 ng/mL | concentration at 1 h [1, 5]: 1450 ng/mL | concentration at 2 h [1, 2]: 1630 ng/mL | concentration at 2 h [1, 3]: 1590 ng/mL | concentration at 2 h [1, 4]: 1180 ng/mL | concentration at 2 h [1, 5]: 1470 ng/mL | concentration at 4 h ([1]; ip, 10 mg/kg, IP 10 mg/kg, 4 h, read-out: Conc. (ng/mL) Mouse 1): 378 ng/mL | concentration at 4 h ([1]; ip, 10 mg/kg, IP 10 mg/kg, 4 h, read-out: Conc. (ng/mL) Mouse 2): 1090 ng/mL | concentration at 4 h ([1]; ip, 10 mg/kg, IP 10 mg/kg, 4 h, read-out: Conc. (ng/mL) Mouse 3): 1250 ng/mL | concentration at 4 h ([1]; ip, 10 mg/kg, IP 10 mg/kg, 4 h, read-out: Mean): 906 ng/mL | concentration at 8 h ([1]; ip, 10 mg/kg, IP 10 mg/kg, 8 h, read-out: Conc. (ng/mL) Mouse 1): 24.1 ng/mL | concentration at 8 h ([1]; ip, 10 mg/kg, IP 10 mg/kg, 8 h, read-out: Conc. (ng/mL) Mouse 2): 145 ng/mL | concentration at 8 h ([1]; ip, 10 mg/kg, IP 10 mg/kg, 8 h, read-out: Conc. (ng/mL) Mouse 3): 77.1 ng/mL | concentration at 8 h ([1]; ip, 10 mg/kg, IP 10 mg/kg, 8 h, read-out: Mean): 82 ng/mL | AUC(0-t) ([1]; ip, 10 mg/kg, read-out: AUClast (h * ng/mL) IP): 6500 ng·h/mL | half-life ([1]; ip, 10 mg/kg, read-out: T ½ (h) IP (converted)): 1.22 h | concentration at 0.033 h [1, 6]: 2100 ng/mL | concentration at 0.033 h [1, 7]: 1800 ng/mL | concentration at 0.033 h [1, 8]: 2310 ng/mL | concentration at 0.033 h [1, 9]: 2070 ng/mL | concentration at 0.083 h [1, 6]: 356 ng/mL | concentration at 0.083 h [1, 7]: 303 ng/mL | concentration at 0.083 h [1, 8]: 432 ng/mL | concentration at 0.083 h [1, 9]: 364 ng/mL | concentration at 0.25 h [1, 6]: 50.1 ng/mL | concentration at 0.25 h [1, 7]: 47.7 ng/mL | concentration at 0.25 h [1, 8]: 47 ng/mL | concentration at 0.25 h [1, 9]: 48.3 ng/mL | concentration at 0.5 h [1, 6]: 20.9 ng/mL | concentration at 0.5 h [1, 7]: 28.6 ng/mL | concentration at 0.5 h [1, 8]: 27.7 ng/mL | concentration at 0.5 h [1, 9]: 25.7 ng/mL | concentration at 1 h [1, 6]: 8.68 ng/mL | concentration at 1 h [1, 7]: 11.6 ng/mL | concentration at 1 h [1, 8]: 9.52 ng/mL | concentration at 1 h [1, 9]: 9.9 ng/mL | concentration at 2 h [1, 6]: 5.32 ng/mL | concentration at 2 h [1, 7]: 7.86 ng/mL | concentration at 2 h [1, 8]: 5.45 ng/mL | concentration at 2 h [1, 9]: 6.21 ng/mL | concentration at 4 h ([1]; iv, 1 mg/kg, IV 1.0 mg/kg, 4 h, read-out: Conc. (ng/mL) Mouse 2): 4.59 ng/mL | AUC(0-t) ([1]; iv, 1 mg/kg, read-out: AUClast (h * ng/mL) IV): 268 ng·h/mL | half-life ([1]; iv, 1 mg/kg, read-out: T ½ (h) IV (converted)): 1.26 h
